According to patent US20190343908A1, “Therapeutic Combination for the Treatment of Cancer” (Nerium Biotechnology Inc., priority 2011, published 2019):

Tests used:
[1] = test system: COR-L 105 (non-small cell lung carcinoma); assay: Methyl-Tetrazolium viability assay, COR-L 105; assay type: cell-based, human; design: key to MTT Average: absorbance (optical density) at 570 nm, second wavelength subtracted; conditions: for MTT Average 24 h / MTT Average 48 h / MTT Average 72 h: COR-L 105, Run 3
Excerpt: (§1) Three different viability assays were chosen to complement each other and yielded results dependent on concentration and cell line: the Methyl Tetrazolium dye assay, the Sulforhodamine B fluorescent dye assay, and the Crystal Violet dye assay.
The Methyl-Tetrazolium dye assay measures the activity of enzymes in mitochondria. The dye precursor is taken up by cells, where it undergoes reduction to the purple formazan. It measures only the mitochondrial activity and, thus, it is not always a reliable indication of whether the cells themselves are alive or dead, since even a recently dead cell has […] enzyme activity in mitochondria. Intracellular glucose concentration, pH, and time before assay all affect the measurements.
(§2) The Methyl Tetrazolium, Sulforhodamine B, and Crystal Violet assays were used to assess cell viabilities. The incubation times were 24 hours, 48 hours, and 72 hours. The Nerium oleander extract Anvirzel™ (a hot water extract of oleander obtained from Salud Integral, Honduras) was tested in concentrations ranging from 0.01 ng/mL to 10 ng/mL.
(§3) Cells were detached by trypsinization (Trypsin-0.25% EDTA, Invitrogen, 25200-072) during the logarithmic phase of culture growth and plated in 96-well plates (18.000 cells/well) (Corning, Costar 359) in a final volume of 200 μl of medium per well. […] The absorbance was measured after 24 hours, 48 hours, and 72 hours of incubation.
For the Methyl-Tetrazolium assay, the dye (Sigma, M2128; 5 mg/mL, diluted in phosphate-buffered saline) was added to each well and plates were incubated for 3 hours at 37° C. After the end of the incubation period, the medium was discarded and the cells were rinsed with phosphate-buffered saline. Finally, the formazan crystals were dissolved in dimethylsulphoxide (Sigma, D4540).
(§4) The optical density of each plate was measured on a μQuant spectrophotometer and the data were analyzed with Gen5 software (μQuant Biomolecular Spectrophotometer MQX200 and Gen5™ Microplate Data Collection & Analysis software, BioTek® Instruments. Inc, April 2008). Absorbance was measured at 570 nm for all assays and a second wavelength was measured in order to subtract noise. For the Methyl-Tetrazolium assay this second wavelength was 630 nm and for the Sulforhodamine B and Crystal Violet assays it was 690 nm.

[2] = test system: MDA-MB 231 (human breast cancer); assay: Sulforhodamine B viability assay, MDA-MB 231; assay type: cell-based; conditions: for SRB 24 h / SRB 48 h / SRB 72 h: Run 3 average
Excerpt: as §1
The Sulforhodamine B and Crystal Violet assays provide information about protein and were used to complement the Methyl-Tetrazolium dye assay. […] It is used for the quantification of cellular proteins of cultured cells. The assay using Crystal Violet, a dye that binds electrostatically to proteins and stains DNA, provides a reliable, simple assay for measuring viability of cells.
as §2, §3
For the Sulforhodamine B assay, 96-well plates were fixed by 10% trichloroacetic acid (Fluka, 91228) and were incubated at 4° C. for 1 hour. Afterwards, plates were rinsed with water and cells were stained with 0.4% Sulforhodamine B (Sigma, 341738), dissolved in 1% acetic acid (Carlo Ebra, 401422) for 15 minutes at room temperature (RT). The unbound stain was washed twice with 1% acetic acid. Finally, 10 mM Tris Buffer pH 10.5 (Sigma, T6791) was added to dissolve the dye.
as §4

N.N.[Cl][Pt][Cl] [cisplatin]
MTT Average 24 h ([1]; 0.1 μg/ml CDDP): 0.056 | MTT Average 48 h ([1]; 0.1 μg/ml CDDP): 0.069 | MTT Average 72 h ([1]; 0.1 μg/ml CDDP): 0.088 | MTT Average 24 h ([1]; 1 μg/ml CDDP): 0.02 | MTT Average 48 h ([1]; 1 μg/ml CDDP): 0.018 | MTT Average 72 h ([1]; 1 μg/ml CDDP): 0.012 | MTT Average 24 h ([1]; 10 μg/ml CDDP): 0.039 | MTT Average 48 h ([1]; 10 μg/ml CDDP): 0.023 | MTT Average 72 h ([1]; 10 μg/ml CDDP): 0.01 | MTT Average 24 h ([1]; 100 μg/ml CDDP): 0.019 | MTT Average 48 h ([1]; 100 μg/ml CDDP): 0.018 | MTT Average 72 h ([1]; 100 μg/ml CDDP): 0.009 | MTT Average ([1]; Run 1, 24 h, 0.1 μg/ml CDDP): 0.083 | MTT Average ([1]; Run 1, 24 h, 1 μg/ml CDDP): 0.023 | MTT Average ([1]; Run 1, 24 h, 10 μg/ml CDDP): 0.057 | MTT Average ([1]; Run 1, 24 h, 100 μg/ml CDDP): 0.015 | MTT Average ([1]; Run 1, 48 h, 0.1 μg/ml CDDP): 0.099 | MTT Average ([1]; Run 1, 48 h, 1 μg/ml CDDP): 0.018 | MTT Average ([1]; Run 1, 48 h, 10 μg/ml CDDP): 0.023 | MTT Average ([1]; Run 1, 48 h, 100 μg/ml CDDP): 0.016 | MTT Average ([1]; Run 1, 72 h, 0.1 μg/ml CDDP): 0.056 | MTT Average ([1]; Run 1, 72 h, 1 μg/ml CDDP): 0.017 | MTT Average ([1]; Run 1, 72 h, 10 μg/ml CDDP): 0.021 | MTT Average ([1]; Run 1, 72 h, 100 μg/ml CDDP): 0.018 | MTT Average ([1]; Run 2, 24 h, 0.1 μg/ml CDDP): 0.056 | MTT Average ([1]; Run 2, 24 h, 1 μg/ml CDDP): 0.02 | MTT Average ([1]; Run 2, 24 h, 10 μg/ml CDDP): 0.039 | MTT Average ([1]; Run 2, 24 h, 100 μg/ml CDDP): 0.019 | MTT Average ([1]; Run 2, 48 h, 0.1 μg/ml CDDP): 0.069 | MTT Average ([1]; Run 2, 48 h, 1 μg/ml CDDP): 0.018 | MTT Average ([1]; Run 2, 48 h, 10 μg/ml CDDP): 0.023 | MTT Average ([1]; Run 2, 48 h, 100 μg/ml CDDP): 0.018 | MTT Average ([1]; Run 2, 72 h, 0.1 μg/ml CDDP): 0.088 | MTT Average ([1]; Run 2, 72 h, 1 μg/ml CDDP): 0.012 | MTT Average ([1]; Run 2, 72 h, 10 μg/ml CDDP): 0.01 | MTT Average ([1]; Run 2, 72 h, 100 μg/ml CDDP): 0.009 | SRB 24 h Average ([2]; Run 1, 0.1 μg/ml CDDP): 1.792 | SRB 48 h Average ([2]; Run 1, 0.1 μg/ml CDDP): 2.678 | SRB 72 h Average ([2]; Run 1, 0.1 μg/ml CDDP): 2.873 | SRB 24 h Average ([2]; Run 1, 1 μg/ml CDDP): 1.395 | SRB 48 h Average ([2]; Run 1, 1 μg/ml CDDP): 2.254 | SRB 72 h Average ([2]; Run 1, 1 μg/ml CDDP): 2.928 | SRB 24 h Average ([2]; Run 1, 10 μg/ml CDDP): 1.785 | SRB 48 h Average ([2]; Run 1, 10 μg/ml CDDP): 2.489 | SRB 72 h Average ([2]; Run 1, 10 μg/ml CDDP): 2.962 | SRB 24 h Average ([2]; Run 1, 100 μg/ml CDDP): 1.752 | SRB 48 h Average ([2]; Run 1, 100 μg/ml CDDP): 2.457 | SRB 72 h Average ([2]; Run 1, 100 μg/ml CDDP): 2.852 | SRB 24 h Average ([2]; Run 2, 0.1 μg/ml CDDP): 1.576 | SRB 48 h Average ([2]; Run 2, 0.1 μg/ml CDDP): 1.83 | SRB 72 h Average ([2]; Run 2, 0.1 μg/ml CDDP): 2.1 | SRB 24 h Average ([2]; Run 2, 1 μg/ml CDDP): 1.27 | SRB 48 h Average ([2]; Run 2, 1 μg/ml CDDP): 1.162 | SRB 72 h Average ([2]; Run 2, 1 μg/ml CDDP): 0.883 | SRB 24 h Average ([2]; Run 2, 10 μg/ml CDDP): 1.598 | SRB 48 h Average ([2]; Run 2, 10 μg/ml CDDP): 1.867 | SRB 72 h Average ([2]; Run 2, 10 μg/ml CDDP): 1.755 | SRB 24 h Average ([2]; Run 2, 100 μg/ml CDDP): 1.509 | SRB 48 h Average ([2]; Run 2, 100 μg/ml CDDP): 1.048 | SRB 72 h Average ([2]; Run 2, 100 μg/ml CDDP): 1.004 | SRB 24 h ([2]; 0.1 μg/ml CDDP): 2.643 | SRB 48 h ([2]; 0.1 μg/ml CDDP): 2.742 | SRB 72 h ([2]; 0.1 μg/ml CDDP): 2.87 | SRB 24 h ([2]; 1 μg/ml CDDP): 1.382 | SRB 48 h ([2]; 1 μg/ml CDDP): 1.537 | SRB 72 h ([2]; 1 μg/ml CDDP): 2.07 | SRB 24 h ([2]; 10 μg/ml CDDP): 2.134 | SRB 48 h ([2]; 10 μg/ml CDDP): 2.364 | SRB 72 h ([2]; 10 μg/ml CDDP): 2.593 | SRB 24 h ([2]; 100 μg/ml CDDP): 1.141 | SRB 48 h ([2]; 100 μg/ml CDDP): 1.464 | SRB 72 h ([2]; 100 μg/ml CDDP): 1.493
